In brackets after ≈: the same amount, converted by molar mass.
Experiments:
[1] = Intrinsic clearance in human microsomes; type: ADME, Microsome
[2] = Inhibition of PI3K/AKT/mTOR in human lung fibroblasts assessed as reduction in AKT phosphorylation at serine473 residue preincubated for 1 hr followed by PDGF-BB stimulation and measured after 10 mins by electrochemiluminescence method
[3] = Lipophilicity, logP of the compound by reversed phase column chromatography; type: physicochemical
[4] = Inhibition of ligand binding to mTORC1/mTORC2 in human HuT78 cells after 2 hrs by kinobead competition binding assay; type: cell-based
[5] = Intrinsic clearance in human hepatocytes; type: ADME, cell-based, Hepatocyte
[6] = Intrinsic clearance in rat microsomes; type: ADME, Microsome
[7] = Intrinsic clearance in rat hepatocytes; type: ADME, cell-based, Hepatocyte
[8] = Kinetic solubility of the compound in pH 7.4 phosphate buffered saline measured after 1 hr; type: physicochemical; details: read-out: Kinetic_solubility
[9] = target: Phosphatidylinositol 4,5-bisphosphate 3-kinase catalytic subunit alpha isoform (Homo sapiens, UniProt P42336)
Sequence of Phosphatidylinositol 4,5-bisphosphate 3-kinase catalytic subunit alpha isoform (P42336 whole entry, canonical isoform): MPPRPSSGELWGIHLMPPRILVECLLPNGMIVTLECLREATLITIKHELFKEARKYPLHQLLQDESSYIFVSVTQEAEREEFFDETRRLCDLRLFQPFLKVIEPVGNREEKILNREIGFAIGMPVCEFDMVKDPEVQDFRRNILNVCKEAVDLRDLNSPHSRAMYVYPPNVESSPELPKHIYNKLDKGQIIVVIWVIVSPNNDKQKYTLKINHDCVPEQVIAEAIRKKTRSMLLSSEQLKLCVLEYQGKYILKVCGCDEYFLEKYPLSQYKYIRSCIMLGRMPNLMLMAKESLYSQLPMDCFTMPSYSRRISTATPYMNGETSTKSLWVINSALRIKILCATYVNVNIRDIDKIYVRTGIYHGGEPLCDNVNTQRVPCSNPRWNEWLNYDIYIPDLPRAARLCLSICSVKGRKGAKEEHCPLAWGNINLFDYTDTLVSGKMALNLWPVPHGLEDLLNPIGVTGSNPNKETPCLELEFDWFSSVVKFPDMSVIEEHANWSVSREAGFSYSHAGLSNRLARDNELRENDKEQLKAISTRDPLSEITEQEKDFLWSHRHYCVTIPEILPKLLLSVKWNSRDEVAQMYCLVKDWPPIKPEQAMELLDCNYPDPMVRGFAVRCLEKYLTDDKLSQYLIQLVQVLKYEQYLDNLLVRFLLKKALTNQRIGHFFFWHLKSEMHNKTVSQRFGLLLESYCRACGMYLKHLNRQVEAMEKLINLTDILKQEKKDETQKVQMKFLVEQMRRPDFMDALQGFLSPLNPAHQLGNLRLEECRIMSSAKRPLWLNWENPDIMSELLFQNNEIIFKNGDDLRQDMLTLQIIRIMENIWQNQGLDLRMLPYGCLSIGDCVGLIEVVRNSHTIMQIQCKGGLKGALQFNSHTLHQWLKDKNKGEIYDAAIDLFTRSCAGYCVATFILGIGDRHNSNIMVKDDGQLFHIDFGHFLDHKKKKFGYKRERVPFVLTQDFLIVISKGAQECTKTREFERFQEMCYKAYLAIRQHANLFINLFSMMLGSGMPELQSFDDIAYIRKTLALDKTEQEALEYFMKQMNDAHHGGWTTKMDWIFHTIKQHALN
Description: Inhibition of PI3Kalpha (unknown origin) using PIP2 as substrate preincubated for 15 mins followed by substrate addition and measured after 1 hr by HTRF assay

[10] = target: T1, Phosphatidylinositol 4,5-bisphosphate 3-kinase catalytic subunit delta isoform (Homo sapiens, UniProt O00329); assay: Inhibition of PI3Kdelta (unknown origin) using PIP2 as substrate preincubated for 15 mins followed by substrate addition and measured after 1 hr by HTRF assay
T1 sequence (O00329 whole entry): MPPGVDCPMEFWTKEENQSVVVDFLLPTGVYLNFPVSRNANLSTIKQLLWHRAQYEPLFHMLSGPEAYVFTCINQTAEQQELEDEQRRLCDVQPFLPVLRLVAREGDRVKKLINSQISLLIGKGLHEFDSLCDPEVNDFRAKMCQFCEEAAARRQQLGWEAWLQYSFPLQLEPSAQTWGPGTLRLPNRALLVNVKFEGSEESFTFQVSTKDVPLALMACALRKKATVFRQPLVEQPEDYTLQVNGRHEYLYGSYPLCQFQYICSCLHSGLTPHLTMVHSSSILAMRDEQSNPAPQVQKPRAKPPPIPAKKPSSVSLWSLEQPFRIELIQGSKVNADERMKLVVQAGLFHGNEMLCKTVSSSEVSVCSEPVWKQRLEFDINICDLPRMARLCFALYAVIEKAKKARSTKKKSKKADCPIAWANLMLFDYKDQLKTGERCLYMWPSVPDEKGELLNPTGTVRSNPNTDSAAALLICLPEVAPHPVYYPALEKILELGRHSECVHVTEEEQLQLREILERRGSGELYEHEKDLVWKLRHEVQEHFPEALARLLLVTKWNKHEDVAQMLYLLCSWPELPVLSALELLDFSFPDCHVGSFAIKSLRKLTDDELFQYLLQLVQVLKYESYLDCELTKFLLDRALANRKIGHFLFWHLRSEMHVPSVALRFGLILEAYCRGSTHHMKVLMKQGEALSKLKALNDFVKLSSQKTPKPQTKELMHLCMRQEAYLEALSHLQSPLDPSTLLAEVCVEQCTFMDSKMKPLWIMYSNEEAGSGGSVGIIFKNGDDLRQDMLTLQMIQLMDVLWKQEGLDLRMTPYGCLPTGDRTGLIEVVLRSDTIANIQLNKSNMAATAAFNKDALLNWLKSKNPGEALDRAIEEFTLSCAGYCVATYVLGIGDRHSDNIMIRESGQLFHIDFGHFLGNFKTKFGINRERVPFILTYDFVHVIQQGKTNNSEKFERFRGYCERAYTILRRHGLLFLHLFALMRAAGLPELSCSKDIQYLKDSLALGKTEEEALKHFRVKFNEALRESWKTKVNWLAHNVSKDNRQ

SMILES | CL [1] [mL/min/g] | IC50 [2] [µM] | logP [3] | pIC50 [4] | CLH [5] [mL/min/g] | CL [6] [mL/min/g] | CLH [7] [mL/min/g] | solubility kinetic at 1 h [8] [µg/mL] | IC50 [9] [µM] | IC50 [10] [µM]
C[C@H]1COCCN1c1cc(C(C)(C)S(C)(=O)=O)nc(-c2ccc(NC(=S)NCCO)cc2)n1 | 0.9 | 0.0398 | 3.6 | 8.4 | 0.9 | 0.8 | 2.8 |  |  | 
CC(C)(c1cc([C@]23CCOC[C@H]2C3)nc(-c2ccc(NC(=S)NCCO)cc2)n1)S(C)(=O)=O | 3.1 | 0.0316 | 3.9 | 8.6 | 5.1 | 1.4 | 13 | 173 (≈ 353 µM) | 25.1 | 31.6
CCNC(=O)Nc1ccc(-c2nccc([C@]34CCOC[C@H]3C4)n2)cc1 | 1.5 | 2 | 3.9 | 6.1 |  | 13.6 |  | 125 (≈ 369 µM) | 25.1 | 25.1
CCNC(=O)Nc1ccc(-c2nccc(N3CCOC[C@@H]3C)n2)cc1 | 1.2 | 1.26 | 3.4 | 6.1 |  | 2 |  | 136 (≈ 398 µM) | 6.31 | 5.01
CCNC(=O)Nc1ccc(-c2nccc([C@@]34CCOC[C@@H]3C4)n2)cc1 | 1.4 | 3.16 | 3.9 | 5.5 |  | 16.7 |  | 127 (≈ 375 µM) | > 31.6 | 25.1
